The subject of this assay is β-catenin-TCF-mediated reporter transcription activity in Colo 205 cells. Put plainly: Colo 205 reporter assay (TCF/LEF luciferase). In kind it is cell-based. As to conditions: five hours after addition of compound. The method in brief:
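Luciferase signal from a TCF/LEF-driven reporter, stably integrated in Colo 205 colon cancer cells, was measured 5 h after compound addition.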
(In general: Reporter assays use an easily measured gene product as a stand-in for the process of interest.)

Setting [1] is: Homo sapiens, COLO 205, 5 h, Colo 205 TCF/LEF luciferase reporter, read-out: TCF reporter Colo205 IC50.
Where [2] appears, read: Colo 205 TCF/LEF luciferase reporter, read-out: TCF reporter Colo205 IC50.

Like-named read-outs stand apart in the source and are kept apart here.

For the molecule `Cc1nc(N[C@@H]2CC[C@H](N(C)c3ccc(C(F)(F)F)cc3)C2)nc2c1NC(=O)[C@H](C(C)C)N2C` [Compound 505, (S)-7-isopropyl-4,8-dimethyl-2-(((1R,3S)-3-(methyl(4-(trifluoromethyl)phenyl)amino)cyclopentyl)amino)-7,8-dihydropteridin-6(5H)-one], the IC50 under setting [1] is 1000 to 5000 nM.

`Cc1nc(NCc2cc(C)n(-c3ccc(C(F)(F)F)cc3)c2C)nc2c1NC(=O)[C@H](C(C)C)N2C` [Compound 453, (S)-2-(((2,5-dimethyl-1-(4-(trifluoromethyl)phenyl)-1H-pyrrol-3-yl)methyl)amino)-7-isopropyl-4,8-dimethyl-7,8-dihydropteridin-6(5H)-one]: under setting [1], the IC50 was less than 300 nM.

In the case of “(7S)-4,5,7,8-tetramethyl-2-((trans-3-(3,4,5-trifluorophenoxy)cyclopentyl)amino)-7,8-dihydropteridin-6(5H)-one [Compound 269]”, the IC50 under setting [2] is less than 300 nM.

In the case of `CCn1nc(C(F)(F)F)cc1Cn1cc(CNc2nc(C)c3c(n2)N(C)[C@@H](C)C(=O)N3)cn1` [Compound 189, (7S)-2-(((1-((1-ethyl-3-(trifluoromethyl)-1H-pyrazol-5-yl)methyl)-1H-pyrazol-4-yl)methyl)amino)-4,7,8-trimethyl-7,8-dihydropteridin-6(5H)-one], the IC50 under setting [1] is less than 300 nM.

Turning to `Cc1nc(NC2CN(C(=O)c3cocn3)C2)nc2c1NC(=O)[C@H](C(C)C)N2C` [Compound 605, (S)-7-isopropyl-4,8-dimethyl-2-((1-(oxazole-4-carbonyl)azetidin-3-yl)amino)-7,8-dihydropteridin-6(5H)-one], under setting [1], the IC50 is no less than 5000 nM.

`C[C@H]1C(=O)Nc2cnc(NCc3cnn(CCOc4ccc(F)cc4)c3)nc2N1C` [Compound 109, (7S)-2-(((1-(2-(4-fluorophenoxy)ethyl)-1H-pyrazol-4-yl)methyl)amino)-7,8-dimethyl-7,8-dihydropteridin-6(5H)-one]: under setting [1], the IC50 was 1000 to 5000 nM.

As to `Cc1nc(C(=O)N2CC(Nc3nc(C)c4c(n3)N(C)[C@@H](C(C)C)C(=O)N4)C2)co1` [Compound 610, (S)-7-isopropyl-4,8-dimethyl-2-((1-(2-methyloxazole-4-carbonyl)azetidin-3-yl)amino)-7,8-dihydropteridin-6(5H)-one], the IC50 under setting [1] is no less than 5000 nM.

As for `Cc1nc(N[C@H]2C[C@H](Nc3cc(F)c(F)c(F)c3)C2)nc2c1NC(=O)[C@H](C)N2C` [Compound 486, (S)-4,7,8-trimethyl-2-((trans-3-((3,4,5-trifluorophenyl)amino)cyclobutyl)amino)-7,8-dihydropteridin-6(5H)-one], the IC50 under setting [1] was in the range of 1000 to 5000 nM.

On to `CO[C@H](C)[C@H]1C(=O)Nc2c(C)nc(N[C@H]3C[C@@H](CNc4cnc(C(F)(F)F)cn4)C3)nc2N1C` [Compound 712, (S)-7-((R)—1-methoxyethyl)-4,8-dimethyl-2-((cis-3-(((5-(trifluoromethyl)pyrazin-2-yl)amino)methyl)cyclobutyl)amino)-7,8-dihydropteridin-6(5H)-one], for which, under setting [1], the IC50 was less than 300 nM.

Take `Cc1nc(NC2CN(C(=O)Cc3ccc(C(F)(F)F)nc3)C2)nc2c1NC(=O)[C@H](C(C)C)N2C` [Compound 594, (S)-7-isopropyl-4,8-dimethyl-2-((1-(2-(6-(trifluoromethyl)pyridin-3-yl)acetyl)azetidin-3-yl)amino)-7,8-dihydropteridin-6(5H)-one]: the IC50 under setting [1] is 1000 to 5000 nM.

With `COCC1(C)C(=O)Nc2c(C)nc(NC3CN(C(=O)c4cc(F)c(F)c(F)c4)C3)nc2N1C` (centres unmarked) [Compound 721, 7-(methoxymethyl)-4,7,8-trimethyl-2-((1-(3,4,5-trifluorobenzoyl)azetidin-3-yl)amino)-7,8-dihydropteridin-6(5H)-one], under setting [1], the IC50 was in the range of 1000 to 5000 nM.

In the case of `COCC1(C)C(=O)Nc2c(C)nc(NCc3cnn(Cc4cc(C(F)(F)F)nn4C)c3)nc2N1C` (centres unmarked) [Compound 704, 7-(methoxymethyl)-4,7,8-trimethyl-2-(((1-((1-methyl-3-(trifluoromethyl)-1H-pyrazol-5-yl)methyl)-1H-pyrazol-4-yl)methyl)amino)-7,8-dihydropteridin-6(5H)-one], the IC50 under setting [1] is less than 300 nM.

For `Cc1nc(N(Cc2cnn(Cc3ccc(C(F)(F)F)nc3)c2)C(=O)NC2CCCCC2)nc2c1NC(=O)[C@H](C)N2C` [Compound 401, (7S)-3-cyclohexyl-1-((1-((6-(trifluoromethyl)pyridin-3-yl)methyl)-1H-pyrazol-4-yl)methyl)-1-(4,7,8-trimethyl-6-oxo-5,6,7,8-tetrahydropteridin-2-yl)urea], the IC50 (Homo sapiens, COLO 205, 5 h, Colo 205 cells with stably transfected TCF/LEF luciferase reporter, read-out: TCF reporter Colo205) was no less than 5000 nM.

For `Cc1nc(N[C@@H]2CC[C@@H](N(C)c3ccc(C(F)(F)F)cc3)C2)nc2c1NC(=O)[C@H](C(C)C)N2C` [Compound 504, (S)-7-isopropyl-4,8-dimethyl-2-(((1R,3R)-3-(methyl(4-(trifluoromethyl)phenyl)amino)cyclopentyl)amino)-7,8-dihydropteridin-6(5H)-one], under setting [1], the IC50 was 300 to 1000 nM.

Turning to `Cc1nc(N[C@H]2C[C@H](Nc3ccnc(C(F)(F)F)n3)C2)nc2c1NC(=O)[C@H](C(C)C)N2C` [Compound 540, (S)-7-isopropyl-4,8-dimethyl-2-((trans-3-((2-(trifluoromethyl)pyrimidin-4-yl)amino)cyclobutyl)amino)-7,8-dihydropteridin-6(5H)-one], the IC50 under setting [1] fell in the range of 1000 to 5000 nM.

In the case of `Cc1nc(N[C@H]2C[C@@H](Nc3ccc(C(F)(F)F)cn3)C2)nc2c1NC(=O)[C@H](C)N2C` [Compound 562, (S)-4,7,8-trimethyl-2-((cis-3-((5-(trifluoromethyl)pyridin-2-yl)amino)cyclobutyl)amino)-7,8-dihydropteridin-6(5H)-one], the IC50 under setting [1] is 300 to 1000 nM.

As for `Cc1nc(NC2CN(C(=O)C3CCC(C)O3)C2)nc2c1NC(=O)[C@H](C(C)C)N2C` (stereo partly drawn) [Compound 637, (7S)-7-isopropyl-4,8-dimethyl-2-((1-(5-methyltetrahydrofuran-2-carbonyl)azetidin-3-yl)amino)-7,8-dihydropteridin-6(5H)-one], the IC50 under setting [1] was no less than 5000 nM.

`Cc1nc(NCc2cnn(-c3ccc(C(F)(F)F)nc3)c2)nc2c1NC(=O)[C@H](C)N2C` [Compound 468, (S)-4,7,8-trimethyl-2-(((1-(6-(trifluoromethyl)pyridin-3-yl)-1H-pyrazol-4-yl)methyl)amino)-7,8-dihydropteridin-6(5H)-one]: the IC50 under setting [1] was less than 300 nM.

Turning to `CCN1C(=O)C2(CC2)N(CC)c2nc(NCc3cnn(Cc4cc(F)c(F)c(F)c4)c3)ncc21` [Compound 233, 5′,8′-diethyl-2′-(((1-(3,4,5-trifluorobenzyl)-1H-pyrazol-4-yl)methyl)amino)-5′,8′-dihydro-6′H-spiro[cyclopropane-1,7′-pteridin]-6′-one], under setting [1], the IC50 is less than 300 nM.

Turning to `Cc1nc(NCc2cnn(Cc3cccnc3C(F)(F)F)c2)nc2c1NC(=O)[C@H](C)N2C` [Compound 183], the IC50 under setting [2] was less than 300 nM.

`COc1ccc(Cn2cc(CNc3nc(C)c4c(n3)N(C)[C@@H](C)C(=O)N4)cn2)cc1F` [Compound 146, (7S)-2-(((1-(3-fluoro-4-methoxybenzyl)-1H-pyrazol-4-yl)methyl)amino)-4,7,8-trimethyl-7,8-dihydropteridin-6(5H)-one]: the IC50 under setting [1] was less than 300 nM.

`Cc1nc(NCc2cnn(CCc3ccc(F)cc3F)c2)nc2c1NC(=O)[C@H](C)N2C` [Compound 106, (7S)-2-(((1-(2,4-difluorophenethyl)-1H-pyrazol-4-yl)methyl)amino)-4,7,8-trimethyl-7,8-dihydropteridin-6(5H)-one]: under setting [1], the IC50 was less than 300 nM.

Consider `COc1cc(Cn2cc(CNc3nc(C)c4c(n3)N(C)[C@@H](C)C(=O)N4)cn2)cnc1C(F)(F)F` [Compound 213, (7S)-2-(((1-((5-methoxy-6-(trifluoromethyl)pyridin-3-yl)methyl)-1H-pyrazol-4-yl)methyl)amino)-4,7,8-trimethyl-7,8-dihydropteridin-6(5H)-one], for which, under setting [1], the IC50 was less than 300 nM.

As to `CC[C@H]1C(=O)Nc2c(C)nc(N[C@H]3C[C@H](N(C)c4cnc(C(F)(F)F)cn4)C3)nc2N1C` [Compound 682, (S)-7-ethyl-4,8-dimethyl-2-((trans-3-(methyl(5-(trifluoromethyl)pyrazin-2-yl)amino)cyclobutyl)amino)-7,8-dihydropteridin-6(5H)-one], under setting [1], the IC50 was less than 300 nM.

With `Cc1nc(N[C@H]2C[C@@H](Nc3cc(C(F)(F)F)ccn3)C2)nc2c1NC(=O)[C@H](C(C)C)N2C` [Compound 561, (S)-7-isopropyl-4,8-dimethyl-2-((cis-3-((4-(trifluoromethyl)pyridin-2-yl)amino)cyclobutyl)amino)-7,8-dihydropteridin-6(5H)-one], the IC50 under setting [1] is less than 300 nM.

With `Cc1ccc(O[C@H]2C[C@H](Nc3nc(C)c4c(n3)N(C)[C@@H](C)C(=O)N4)C2)cc1` [Compound 339, (7S)-4,7,8-trimethyl-2-((trans-3-(p-tolyloxy)cyclobutyl)amino)-7,8-dihydropteridin-6(5H)-one], under setting [1], the IC50 is 300 to 1000 nM.

Regarding `Cc1nc(NCc2cnn(C[C@@H](C)c3ccc(F)cc3)c2)nc2c1NC(=O)[C@H](C)N2C` [Compound 95, (7S)-2-(((1-((S)-2-(4-fluorophenyl)propyl)-1H-pyrazol-4-yl)methyl)amino)-4,7,8-trimethyl-7,8-dihydropteridin-6(5H)-one], the IC50 under setting [1] is less than 300 nM.

For `Cc1nc(NC2CN(C(=O)c3csc(Cl)n3)C2)nc2c1NC(=O)[C@H](C(C)C)N2C` [Compound 630, (S)-2-((1-(2-chlorothiazole-4-carbonyl)azetidin-3-yl)amino)-7-isopropyl-4,8-dimethyl-7,8-dihydropteridin-6(5H)-one], the IC50 under setting [1] is 1000 to 5000 nM.

In the case of `COc1ccc(O[C@H]2C[C@H](Nc3nc(C)c4c(n3)N(C)[C@@H](C)C(=O)N4)C2)cc1OC` [Compound 352, (7S)-2-((trans-3-(3,4-dimethoxyphenoxy)cyclobutyl)amino)-4,7,8-trimethyl-7,8-dihydropteridin-6(5H)-one], the IC50 under setting [1] was 1000 to 5000 nM.

Source of the values: patent US20230312587A1, “PTERIDINONE COMPOUNDS AND USES THEREOF” (Vertex Pharmaceutical Incorporated, priority 2018, published 2023).
